# Experimental data taken from PubChem BioAssay (NCI).
# Several values for one entry are separate records, joined by “and”; a condition that tells them apart may be missing. Equal values may be shown once.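 Method: 48-hour compound exposure of cells in 96-well plates, five concentrations, linear interpolation of endpoints. GI50 is the concentration that inhibits growth by half. TGI marks complete inhibition of growth.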
# Tests used:
# Test in all cases: NCI tumour cell line growth inhibition, 48 h
# HS 578T breast = system: HS 578T breast
# 786-0 renal = system: 786-0 renal
# SF-539 CNS = system: SF-539 CNS
# K-562 leukemia = system: K-562 leukemia
# T-47D breast = system: T-47D breast
# NCI/ADR-RES ovarian = system: NCI/ADR-RES ovarian
# BT-549 breast = system: BT-549 breast
# SNB-75 CNS = system: SNB-75 CNS
# SW-620 colon = system: SW-620 colon
# A549 NSCLC = system: A549 NSCLC
# SNB-19 CNS = system: SNB-19 CNS
# SF-268 CNS = system: SF-268 CNS
# IGROV1 ovarian = system: IGROV1 ovarian
# UACC-257 melanoma = system: UACC-257 melanoma
# KM20L2 colon = system: KM20L2 colon
# SR leukemia = system: SR leukemia
# NCI-H460 lung = system: NCI-H460 lung
# M19-MEL melanoma = system: M19-MEL melanoma
# SK-MEL-5 melanoma = system: SK-MEL-5 melanoma
# SN12C renal = system: SN12C renal
# DU-145 prostate = system: DU-145 prostate
# OVCAR-8 ovarian = system: OVCAR-8 ovarian
# SNB-78 CNS = system: SNB-78 CNS
# CAKI-1 renal = system: CAKI-1 renal
# NCI-H226 lung = system: NCI-H226 lung
# SF-295 CNS = system: SF-295 CNS
# HOP-62 NSCLC = system: HOP-62 NSCLC
# HOP-92 NSCLC = system: HOP-92 NSCLC
# PC-3 prostate = system: PC-3 prostate
# LOX IMVI melanoma = system: LOX IMVI melanoma
# HCT-15 colon = system: HCT-15 colon
# DLD-1 colon = system: DLD-1 colon
# NCI-H522 lung = system: NCI-H522 lung
# XF 498 CNS = system: XF 498 CNS
# HL-60(TB) leukemia = system: HL-60(TB) leukemia
# TK-10 renal = system: TK-10 renal
# DMS 273 small cell lung = system: DMS 273 small cell lung
# RXF 393 renal = system: RXF 393 renal
# HCC-2998 colon = system: HCC-2998 colon
# COLO 205 colon = system: COLO 205 colon
# RPMI-8226 leukemia = system: RPMI-8226 leukemia
# MDA-MB-231 breast = system: MDA-MB-231 breast
# SK-OV-3 ovarian = system: SK-OV-3 ovarian
# MALME-3M melanoma = system: MALME-3M melanoma
# NCI-H23 lung = system: NCI-H23 lung
# CCRF-CEM leukemia = system: CCRF-CEM leukemia
# DMS 114 small cell lung = system: DMS 114 small cell lung
# M14 melanoma = system: M14 melanoma
# OVCAR-5 ovarian = system: OVCAR-5 ovarian
# HT29 colon = system: HT29 colon
# LXFL 529 NSCLC = system: LXFL 529 NSCLC
# UO-31 renal = system: UO-31 renal
# KM12 colon = system: KM12 colon
smiles,measurement,setting,value
CCCCCCCCCCCCCCCCCCOP(=O)([O-])OC1CC[N+](C)(C)CC1,GI50,HS 578T breast,> 10 µM
same,TGI,HS 578T breast,> 10 µM and 27.5 µM
same,GI50,786-0 renal,2.18 µM
same,TGI,786-0 renal,5.95 µM and 8.32 µM
same,GI50,SF-539 CNS,> 10 µM
same,TGI,SF-539 CNS,> 10 µM and 29.7 µM
same,GI50,K-562 leukemia,3.63 µM
same,TGI,K-562 leukemia,> 10 µM and 39 µM
same,GI50,T-47D breast,5.08 µM
same,TGI,T-47D breast,> 10 µM and 36.9 µM
same,GI50,NCI/ADR-RES ovarian,> 10 µM
same,TGI,NCI/ADR-RES ovarian,> 10 µM and 28 µM
same,GI50,BT-549 breast,5.76 µM
same,TGI,BT-549 breast,> 10 µM and 27.5 µM
same,GI50,SNB-75 CNS,> 10 µM
same,TGI,SNB-75 CNS,> 10 µM and 20 µM
same,TGI,SW-620 colon,> 10 µM and 22.4 µM
same,GI50,A549 NSCLC,6.98 µM
same,TGI,A549 NSCLC,> 10 µM and 24.6 µM
same,GI50,SNB-19 CNS,5.02 µM
same,TGI,SNB-19 CNS,> 10 µM and 23.2 µM
same,GI50,SF-268 CNS,4.42 µM
same,TGI,SF-268 CNS,> 10 µM and 24.6 µM
same,GI50,IGROV1 ovarian,1.3 µM
same,TGI,IGROV1 ovarian,4.29 µM and 10.8 µM
same,GI50,UACC-257 melanoma,> 10 µM
same,TGI,UACC-257 melanoma,> 10 µM and 45.7 µM
same,TGI,KM20L2 colon,6.16 µM
same,GI50,SR leukemia,0.87 µM
same,TGI,SR leukemia,4.2 µM and 5.74 µM
same,GI50,NCI-H460 lung,2.85 µM
same,TGI,NCI-H460 lung,> 10 µM and 7.65 µM
same,TGI,M19-MEL melanoma,14.8 µM
same,TGI,SK-MEL-5 melanoma,29.7 µM
same,GI50,SN12C renal,3.87 µM
same,TGI,SN12C renal,> 10 µM and 15.7 µM
same,GI50,DU-145 prostate,> 10 µM
same,TGI,DU-145 prostate,> 10 µM and 38.5 µM
same,GI50,OVCAR-8 ovarian,> 10 µM
same,TGI,OVCAR-8 ovarian,> 10 µM and 28.8 µM
same,TGI,SNB-78 CNS,46.2 µM
same,GI50,CAKI-1 renal,2.03 µM
same,TGI,CAKI-1 renal,> 10 µM and 15.6 µM
same,GI50,NCI-H226 lung,> 10 µM
same,TGI,NCI-H226 lung,> 10 µM and 27.1 µM
same,GI50,SF-295 CNS,3.63 µM
same,TGI,SF-295 CNS,> 10 µM and 18.2 µM
same,GI50,HOP-62 NSCLC,3.2 µM
same,TGI,HOP-62 NSCLC,> 10 µM and 20.7 µM
same,GI50,HOP-92 NSCLC,2.1 µM
same,TGI,HOP-92 NSCLC,5.32 µM and 9.79 µM
same,GI50,PC-3 prostate,0.707 µM
same,TGI,PC-3 prostate,3.46 µM and 3.75 µM
same,GI50,LOX IMVI melanoma,3.89 µM
same,TGI,LOX IMVI melanoma,> 10 µM and 22 µM
same,TGI,HCT-15 colon,9.86 µM and 8.72 µM
same,TGI,DLD-1 colon,22.4 µM
same,GI50,NCI-H522 lung,1.89 µM
same,TGI,NCI-H522 lung,5.64 µM and 12.2 µM
same,TGI,XF 498 CNS,29.1 µM
same,GI50,HL-60(TB) leukemia,> 10 µM
same,TGI,HL-60(TB) leukemia,> 10 µM and 6.98 µM
same,GI50,TK-10 renal,0.535 µM
same,TGI,TK-10 renal,1.89 µM and 5.34 µM
same,TGI,DMS 273 small cell lung,14.9 µM
same,TGI,RXF 393 renal,5.55 µM and 8.04 µM
same,TGI,HCC-2998 colon,17.3 µM
same,GI50,COLO 205 colon,1.42 µM
same,TGI,COLO 205 colon,9.43 µM and 15.8 µM
same,GI50,RPMI-8226 leukemia,1.18 µM
same,TGI,RPMI-8226 leukemia,> 10 µM and 13.8 µM
same,GI50,MDA-MB-231 breast,4.81 µM
same,TGI,MDA-MB-231 breast,> 10 µM and 20.8 µM
same,TGI,SK-OV-3 ovarian,> 10 µM and 19.1 µM
same,GI50,MALME-3M melanoma,> 10 µM
same,TGI,MALME-3M melanoma,> 10 µM and 26.8 µM
same,GI50,NCI-H23 lung,> 10 µM
same,TGI,NCI-H23 lung,> 10 µM and 28.5 µM
same,GI50,CCRF-CEM leukemia,2.73 µM
same,TGI,CCRF-CEM leukemia,7.55 µM and 10.5 µM
same,TGI,DMS 114 small cell lung,26.5 µM
same,GI50,M14 melanoma,1.87 µM
same,TGI,M14 melanoma,4.41 µM and 12.7 µM
same,GI50,OVCAR-5 ovarian,2.25 µM
same,TGI,OVCAR-5 ovarian,> 10 µM and 8.82 µM
same,GI50,HT29 colon,3.04 µM
same,TGI,HT29 colon,> 10 µM and 14.4 µM
same,TGI,LXFL 529 NSCLC,16.5 µM
same,GI50,UO-31 renal,4.27 µM
same,TGI,UO-31 renal,> 10 µM and 21.7 µM
same,GI50,KM12 colon,1.15 µM
same,TGI,KM12 colon,2.97 µM and 1.46 µM
